Laboratory results reported in publication PMC11204507, “Mechanistic Insights into the Neurotoxicity of 2,5-Dimethoxyphenethylamines (2C) and Corresponding N-(2-methoxybenzyl)phenethylamine (NBOMe) Drugs” (Journal of Xenobiotics, 2024).
Where “and” joins values, the source holds several entries; their conditions need not be identical. Equal entries are not always repeated.

Legend:
MAO-A and MAO-B = settings: rat model; cited from earlier work
serotonergic B65 cells = test system: serotonergic B65 cells; design: method as in doi:10.1007/s11419-020-00527-w; settings: 50 μM, 3 h exposure; cited from earlier work
[1] = test system: differentiated SH-SY5Y cells; test: Mitochondrial membrane potential, JC-1 dye; type: cell-based, human; settings: control 100.0%
Source text: Mitochondrial membrane potential (ΔΨm) is a valuable parameter that reflects the energy status and functional integrity of cells, and the JC-1 dye is widely used as an indicator of ΔΨm. In healthy cells with high ΔΨm, JC-1 forms J-aggregates that emit red fluorescence. In apoptotic or unhealthy cells with low ΔΨm, JC-1 remains in its monomeric form and emits green fluorescence. The ratio of red to green fluorescence intensity is proportional to the degree of polarization of the mitochondrial membrane (a higher ratio indicates a more polarized membrane).
Thus, the SH-SY5Y cells were seeded onto 24-well plates (25,000 cells/cm^2) following the previously described seeding and differentiation protocol. On the day of the experiment, the cells were exposed to different concentrations of the tested drugs (EC20 and EC50) for 24 h (37 °C, 5% CO2). CCCP (100 µM, 2 h) was used as a positive control for mitochondrial membrane depolarization. At the end of the incubation period, the medium was removed, and the cells were incubated, for 30 min, with 10 µM JC-1 under light protection (37 °C, 5% CO2). Subsequently, the plates were centrifuged (5 min, 300× g, room temperature), the supernatants were rejected, and the cells were washed 2 times with warm HBSS with calcium and magnesium. Fluorescence was recorded at the wavelengths of 485 nm excitation and 535 nm emission for JC-1 monomers and 535 nm excitation and 595 nm emission wavelengths for J-aggregates in a multi-well plate reader (PowerWaveX, BioTek Instruments, Winooski, VT, USA). The results are presented as the percentage of JC-1 red/green fluorescence ratio relative to the control cells, and a minimum of 5 independent experiments were conducted in triplicate.

[2] = test system: differentiated SH-SY5Y cells; test: Total glutathione (tGSH) levels, DTNB-GSH recycling assay; type: cell-based, human; settings: control 100.0%
Source text: Glutathione has a critical role in cellular physiology, playing multiple essential roles in maintaining cellular health and function, including antioxidant defense, detoxification, and cellular signaling. The 5,5′-dithiobis(2-nitrobenzoic acid) (DTNB)-GSH recycling assay was used to measure total GSH (tGSH), which includes the reduced (GSH) and oxidized (GSSG) forms of glutathione. The assay relies on the reaction of GSH with DTNB, producing the yellow-colored 5-thio-2-nitrobenzoic acid (TNB). Thus, the TNB generated is directly proportional to the amount of GSH present in the sample [31].
Thus, the SH-SY5Y cells were seeded onto 6-well plates (25,000 cells/cm^2) following the previously described seeding and differentiation protocol. On the day of the experiment, the cells were exposed to different concentrations of the tested drugs (EC20 and EC50) for 24 h (37 °C, 5% CO2). At the end of the incubation period, the cells were centrifuged (5 min, 250 g, 4 °C). For the analysis of extracellular GSH levels, the supernatants were collected, and proteins precipitated with 30% HClO4 for at least 30 min (4 °C). For the analysis of intracellular GSH levels, after collecting the supernatants, the cells were treated with 5% HClO4 for at least 30 min (4 °C). Subsequently, the acidic samples were collected from the plates and centrifuged (5 min, 16,000× g, 4 °C), and the supernatants were stored until further analysis (−80 °C). To assess protein content, the pellets were resuspended in 1M NaOH, maintained at 4 °C overnight, and stored until further analysis (−20 °C). A Bio-Rad DC™ protein assay kit (Bio-Rad Laboratories, Hercules, CA, USA) was used to analyze protein content, in accordance with the manufacturer’s guidelines.
Before the tGSH quantification, the acidic samples were diluted (1:2) with 5% HClO4, and the diluted samples/standards were neutralized with an ice-cold KHCO3 solution (1:1) and centrifuged (5 min, 16,000× g, 4 °C).
Then, 100 µL of supernatant from each sample/standard was transferred into a 96-well plate and 65 µL of an extemporaneous reagent solution (0.68 mM NADPH and 3.96 mM DTNB prepared in a 7.5 pH phosphate buffer) was added to each well, and the plates were incubated for 15 min at 30 °C. After 15 min, 40 μL of a 10 U/mL glutathione reductase solution was added to each well and the formation of 5-thio-2-nitrobenzoic acid (TNB) was monitored every 10 s for 3 min (kinetic mode) at 415 nm in a multi-well plate reader (PowerWaveX, BioTek Instruments, Winooski, VT, USA).
The GSH levels were standardized to protein content. The results are presented as a percentage relative to the control cells (0 µM). A minimum of 6 independent experiments were conducted, in duplicate.
Glutamate/cysteine ligase (GCL), also recognized as gamma-glutamylcysteine synthetase (γ-GCS), is a key enzyme in the first step of glutathione biosynthesis, as it catalyzes the reaction between glutamate and cysteine to produce γ-glutamylcysteine. […] The SH-SY5Y cells were seeded onto 6-well plates (25,000 cells/cm^2) following the previously described seeding and differentiation protocol. On the day of the experiment, the cells were incubated with BSO (100 µM) for 24 h (37 °C, 5% CO2) and the quantification of GSH intracellular levels was achieved according to the previously described method in Section 2.11.

[3] = test system: differentiated SH-SY5Y cells; test: Intracellular calcium levels, Fluo-4 AM probe; type: cell-based, human; settings: control 100.0%
Experimental: Calcium is a vital second messenger for almost every cellular process, including cellular signaling, muscle function, neurotransmitter release, membrane function, and apoptosis. Therefore, its levels inside cells are strictly controlled to maintain cellular homeostasis. The intracellular calcium levels were measured using the cell-permeable Fluo-4 AM probe. Inside the cells, Fluo-4 AM is cleaved to its active and fluorescent form—Fluo-4—which has a high affinity for calcium ions (Ca^2⁺). Thus, its fluorescence emission is directly proportional to the concentration of calcium ions in the intracellular environment.
Therefore, the SH-SY5Y cells were seeded onto 96-well plates (25,000 cells/cm^2) following the previously described seeding and differentiation protocol. […] The average value for negative control (EGTA-treated cells) was subtracted from every other condition and then the minimum average value was subtracted from the maximum average value for every other condition. The results are presented as a percentage relative to the control cells (0 µM). A minimum of 5 independent experiments were conducted in triplicate.

[4] = drug at its EC50, immediately after exposure

Question: With CCSc1cc(OC)c(CCN)cc1OC.Cl [2C-T-2, 2-(4-(ethylthio)-2,5-dimethoxyphenyl)ethan-1-aminium chloride] as the compound, how does the “deamination by MAO-A and MAO-B” value (MAO-A and MAO-B) read?
Answer: both isoenzymes can catalyze the deamination

Question: And the “mitochondrial production of ROS” value (serotonergic B65 cells)?
Answer: increase in the mitochondrial production of ROS

Question: What about the “mitochondrial membrane polarization (JC-1 red/green ratio), % of the control cells” value ([1]; drug at its EC20, 24 h) of the same compound?
Answer: 58.4%

Question: What about the “mitochondrial membrane polarization (JC-1 red/green ratio), % of the control cells” value ([1]; drug at its EC50, 24 h) of the same compound?
Answer: 55.2%

Question: And the “intracellular tGSH levels, % of control cells” value (“intracellular tGSH levels, %” for short) ([2]; drug at its EC20, 24 h)?
Answer: 87.0%

Question: What about the “intracellular tGSH levels, %” value ([2]; drug at its EC50, 24 h) of the same compound?
Answer: 80.0%

Question: Which “mitochondrial production of ROS” value (serotonergic B65 cells) does the source give for COc1cc(SC(C)C)c(OC)cc1CCN.Cl [2C-T-4, 2-(4-(isopropylthio)-2,5-dimethoxyphenyl)ethan-1-aminium chloride] here?
Answer: no significant alterations

Question: And the “mitochondrial membrane polarization (JC-1 red/green ratio), % of the control cells” value ([1]; drug at its EC20, 24 h)?
Answer: 58.3%

Question: And the “mitochondrial membrane polarization (JC-1 red/green ratio), % of the control cells” value ([1]; drug at its EC50, 24 h)?
Answer: 56.1%

Question: And the “intracellular tGSH levels, %” value ([2]; drug at its EC20, 24 h)?
Answer: 81.4%

Question: And the “intracellular tGSH levels, %” value ([2]; drug at its EC50, 24 h)?
Answer: 75.8%

Question: What does the source list for CCCSc1cc(OC)c(CCN)cc1OC.Cl [2C-T-7, 2-(2,5-dimethoxy-4-(propylthio)phenyl)ethan-1-aminium chloride]?
Answer: deamination by MAO-A and MAO-B (MAO-A and MAO-B): both isoenzymes can catalyze the deamination; Ca2+ intracellular levels, % of control cells ([3]; drug at its EC20, immediately after exposure): 129.9%; Ca2+ intracellular levels, % of control cells [3, 4]: 146.5%; mitochondrial production of ROS (serotonergic B65 cells): increase in the mitochondrial production of ROS; mitochondrial membrane polarization (JC-1 red/green ratio), % of the control cells ([1]; drug at its EC20, 24 h): 50.8%; mitochondrial membrane polarization (JC-1 red/green ratio), % of the control cells ([1]; drug at its EC50, 24 h): 50.0%; intracellular tGSH levels, % of control cells ([2]; drug at its EC20, 24 h): 84.2%; intracellular tGSH levels, % of control cells ([2]; drug at its EC50, 24 h): 82.4%

Question: What does the source list for CCSc1cc(OC)c(CCNCc2ccccc2OC)cc1OC.Cl [25T2-NBOMe, 2-(4-(ethylthio)-2,5-dimethoxyphenyl)-N-(2-methoxybenzyl)ethan-1-aminium chloride]?
Answer: mitochondrial membrane polarization (JC-1 red/green ratio), % of the control cells ([1]; drug at its EC20, 24 h): 78.7%; mitochondrial membrane polarization (JC-1 red/green ratio), % of the control cells ([1]; drug at its EC50, 24 h): 74.3%; intracellular tGSH levels, % of control cells ([2]; drug at its EC20, 24 h): 54.4%; intracellular tGSH levels, % of control cells ([2]; drug at its EC50, 24 h): 49.2%

Question: Which “mitochondrial membrane polarization (JC-1 red/green ratio), % of the control cells” value ([1]; drug at its EC20, 24 h) does the source give for COc1cc(SC(C)C)c(OC)cc1CCNCc1ccccc1OC.Cl [25T4-NBOMe, 2-(4-(isopropylthio)-2,5-dimethoxyphenyl)-N-(2-methoxybenzyl)ethan-1-aminium chloride] here?
Answer: 83.5%

Question: What about the “mitochondrial membrane polarization (JC-1 red/green ratio), % of the control cells” value ([1]; drug at its EC50, 24 h) of the same compound?
Answer: 70.5%

Question: And the “intracellular tGSH levels, %” value ([2]; drug at its EC20, 24 h)?
Answer: 71.2%

Question: What about the “intracellular tGSH levels, %” value ([2]; drug at its EC50, 24 h) of the same compound?
Answer: 60.3%

Question: With CCCSc1cc(OC)c(CCNCc2ccccc2OC)cc1OC.Cl [25T7-NBOMe, 2-(2,5-dimethoxy-4-(propylthio)phenyl)-N-(2-methoxybenzyl)ethan-1-aminium chloride] as the compound, how does the “Ca2+ intracellular levels, % of control cells” value [3, 4] read?
Answer: > 300% and 320.9%

Question: And the “mitochondrial membrane polarization (JC-1 red/green ratio), % of the control cells” value ([1]; drug at its EC20, 24 h)?
Answer: 90.8%

Question: What about the “mitochondrial membrane polarization (JC-1 red/green ratio), % of the control cells” value ([1]; drug at its EC50, 24 h) of the same compound?
Answer: 76.8%

Question: And the “intracellular tGSH levels, %” value ([2]; drug at its EC20, 24 h)?
Answer: 72.2%

Question: And the “intracellular tGSH levels, %” value ([2]; drug at its EC50, 24 h)?
Answer: 52.0%
